Measurements: patent publication US20080139564A1, “SUBSTITUTED PHENYL PROPYL AMINES AS HISTAMINE H3 RECEPTOR AND SEROTONIN TRANSPORTER MODULATORS” (priority 2006, published 2008)

Key:
Rat SERT = biological target: T1, Rat SERT (Rattus norvegicus, UniProt P31652); test: Rat brain SERT binding ([3H]-Citalopram displacement, rat brain membranes); conditions: 0.6 nM [3H]-Citalopram, 60 min at 25° C.
T1 construct: A rat brain without cerebellum (Zivic Laboratories, Inc.—Pittsburgh, Pa.) was homogenized; tissue Zivic Laboratories, Inc; host or cells: rat brain without cerebellum
T1 sequence (P31652 whole entry): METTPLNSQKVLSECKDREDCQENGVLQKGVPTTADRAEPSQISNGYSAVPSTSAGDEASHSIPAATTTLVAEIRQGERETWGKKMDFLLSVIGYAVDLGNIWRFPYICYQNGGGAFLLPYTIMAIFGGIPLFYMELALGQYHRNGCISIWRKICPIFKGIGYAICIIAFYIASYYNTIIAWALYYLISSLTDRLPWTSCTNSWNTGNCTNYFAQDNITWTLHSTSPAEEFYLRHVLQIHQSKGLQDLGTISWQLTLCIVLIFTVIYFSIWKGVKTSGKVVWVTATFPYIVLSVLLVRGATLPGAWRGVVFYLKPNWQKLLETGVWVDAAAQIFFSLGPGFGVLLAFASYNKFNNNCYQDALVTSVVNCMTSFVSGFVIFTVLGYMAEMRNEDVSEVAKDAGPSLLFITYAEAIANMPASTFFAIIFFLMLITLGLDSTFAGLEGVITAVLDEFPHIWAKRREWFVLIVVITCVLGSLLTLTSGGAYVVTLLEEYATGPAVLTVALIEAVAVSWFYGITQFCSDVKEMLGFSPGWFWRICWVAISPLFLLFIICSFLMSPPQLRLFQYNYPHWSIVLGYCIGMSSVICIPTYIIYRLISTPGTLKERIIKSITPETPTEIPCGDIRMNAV
Description: A rat brain without cerebellum (Zivic Laboratories, Inc.—Pittsburgh, Pa.) was homogenized in a 52.6 mM Tris pH 8/126.4 mM NaCl/5.26 mM KCl mixture and centrifuged at 1,000 rpm for 5 min. The supernatant was removed and re-centrifuged at 15,000 rpm for 30 min. Pellets were re-homogenized in a 52.6 mM Tris pH8/126.4 mM NaCl/5.26 mM KCl mixture. Membranes were incubated with 0.6 nM [^3H]-Citalopram plus/minus test compounds for 60 min at 25° C. and harvested by rapid filtration over GF/C glass fiber filters (pretreated with 0.3% polyethylenimine) followed by four washes with ice-cold buffer. Nonspecific binding was defined in the presence of 100 μM fluoxetine.

human H3 receptor = biological target: T2, human H3 receptor (Homo sapiens, UniProt Q9Y5N1); test: H3 receptor binding (N-[3H]-α-methylhistamine displacement, SK-N-MC cell membranes); conditions: 0.8 nM N-[3H]-α-methylhistamine, 60 min at 25° C.
T2 construct: expressed in transfected cells
T2 sequence (Q9Y5N1 whole entry): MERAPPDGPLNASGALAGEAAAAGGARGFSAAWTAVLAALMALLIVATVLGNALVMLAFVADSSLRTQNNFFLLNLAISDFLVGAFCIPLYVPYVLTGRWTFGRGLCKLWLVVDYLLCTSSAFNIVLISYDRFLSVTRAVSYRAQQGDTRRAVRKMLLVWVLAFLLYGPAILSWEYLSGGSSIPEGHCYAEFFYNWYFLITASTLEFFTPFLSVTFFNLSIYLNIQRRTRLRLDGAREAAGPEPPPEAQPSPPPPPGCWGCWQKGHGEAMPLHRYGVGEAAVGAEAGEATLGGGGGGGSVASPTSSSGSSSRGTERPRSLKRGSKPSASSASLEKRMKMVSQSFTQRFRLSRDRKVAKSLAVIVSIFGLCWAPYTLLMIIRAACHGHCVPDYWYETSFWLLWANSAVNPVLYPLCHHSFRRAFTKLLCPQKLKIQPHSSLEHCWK
Description: Binding of compounds to the cloned human H3 receptor, stably expressed in SK-N-MC cells, was performed (Lovenberg, T. W. et al. J. Pharmacol. Exp. Ther. 2000, 293, 771-778). Briefly, cell pellets from SK-N-MC cells expressing the human H3 receptor were homogenized in 50 mM Tris-HCl/5 mM EDTA and re-centrifuged at 30,000 g for 30 min. Pellets were re-homogenized in 50 mM Tris/5 mM EDTA (pH 7.4). Membranes were incubated with 0.8 nM N—[^3H]-α-methylhistamine plus/minus test compounds for 60 min at 25° C. and harvested by rapid filtration over GF/C glass fiber filters (pretreated with 0.3% polyethylenimine) followed by four washes with ice-cold buffer. Nonspecific binding was defined in the presence of 10 μM histamine.

human SERT = biological target: T3, human SERT (Homo sapiens, UniProt P31645); test: Human SERT binding (3H-citalopram displacement, HEK293 membranes); conditions: 3H-citalopram 3.1 nM, rt for 1 h
T3 construct: expressed in transfected cells; host or cells: HEK293
T3 sequence (P31645 whole entry): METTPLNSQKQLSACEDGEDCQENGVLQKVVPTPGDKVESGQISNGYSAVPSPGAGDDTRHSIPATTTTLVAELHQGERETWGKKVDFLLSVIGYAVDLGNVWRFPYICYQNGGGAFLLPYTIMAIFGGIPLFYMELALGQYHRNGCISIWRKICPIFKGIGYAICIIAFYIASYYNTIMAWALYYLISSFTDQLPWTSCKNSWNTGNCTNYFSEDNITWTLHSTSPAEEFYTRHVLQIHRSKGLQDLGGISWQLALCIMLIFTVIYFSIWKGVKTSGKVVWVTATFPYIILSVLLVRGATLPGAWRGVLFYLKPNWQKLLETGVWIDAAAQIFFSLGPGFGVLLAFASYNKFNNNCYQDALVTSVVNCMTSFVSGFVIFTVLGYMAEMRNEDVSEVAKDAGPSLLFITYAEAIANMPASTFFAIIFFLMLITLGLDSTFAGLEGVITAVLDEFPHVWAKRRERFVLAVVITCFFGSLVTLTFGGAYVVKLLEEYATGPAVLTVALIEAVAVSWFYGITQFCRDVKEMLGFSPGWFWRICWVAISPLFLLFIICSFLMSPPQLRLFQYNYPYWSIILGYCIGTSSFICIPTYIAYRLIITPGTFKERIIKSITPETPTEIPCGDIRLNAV
Description: Homogenized HEK293 (Human Embryonic Kidney) membranes expressing the human SERT were incubated with ^3H-citalopram (SERT) at rt for 1 h in 50 mM Tris, 120 mM NaCl, 5 mM KCl (pH 7.4). Nonspecific binding was determined in the presence of 10 μM fluoxetine for the SERT. The membranes were washed and the radioactivity was counted as above. Calculations for Ki at the SERT were based on a Kd value for ^3H-citalopram and a ligand concentration of 3.1 nM.

Compound	Ki (Rat SERT) [nM]	Ki (human H3 receptor) [nM]	Ki (human SERT) [nM]
CN(C)CCC(Oc1ccc(Br)cc1)c1ccc(OCCCN2CCCCC2)cc1 (stereo not drawn) [Example 11, {3-(4-Bromo-phenoxy)-3-[4-(3-piperidin-1-yl-propoxy)-phenyl]-propyl}-dimethyl-amine]	5	1.7	7
CN(C)CCC(Oc1ccc([N+](=O)[O-])cc1)c1ccc(OCCCN2CCCCC2)cc1 (stereo not drawn) [Example 12, Dimethyl-{3-(4-nitro-phenoxy)-3-[4-(3-piperidin-1-yl-propoxy)phenyl]-propyl}-amine]	4	0.9	9
CN(C)CCC(Oc1ccc(Cl)cc1Cl)c1ccc(OCCCN2CCCCC2)cc1 (stereo not drawn) [Example 16, {3-(2,4-Dichloro-phenoxy)-3-[4-(3-piperidin-1-yl-propoxy)-phenyl]-propyl}-dimethyl-amine]	7	0.9	10
CN(C)CCC(Oc1ccccc1Cl)c1ccc(OCCCN2CCCCC2)cc1 (stereo not drawn) [Example 17, {3-(2-Chloro-phenoxy)-3-[4-(3-piperidin-1-yl-propoxy)-phenyl]-propyl}-dimethyl-amine]	8	0.9	21
CC(C)N1CCN(CCC#Cc2ccc(C(CCN(C)C)Oc3ccccc3)cc2)CC1 (stereo not drawn) [Example 22, (3-{4-[4-(4-Isopropyl-piperazin-1-yl)-but-1-ynyl]-phenyl}-3-phenoxy-propyl)-dimethyl-amine]	6	49	22
CN(C)CCC(Oc1ccccc1)c1ccc(C#CCCN2CCOCC2)cc1 (stereo not drawn) [Example 23, Dimethyl-{3-[4-(4-morpholin-4-yl-but-1-ynyl)-phenyl]-3-phenoxy-propyl}-amine]	13	19	37
CN(C)CCC(Oc1ccccc1)c1ccc(C#CCCN2CCSCC2)cc1 (stereo not drawn) [Example 24, Dimethyl-{3-phenoxy-3-[4-(4-thiomorpholin-4-yl-but-1-ynyl)phenyl]-propyl}-amine]	18	11	34
CN(C)CCC(Oc1ccccc1)c1cccc(C#CCCN2CCCCC2)c1 (stereo not drawn) [Example 31, Dimethyl-{3-phenoxy-3-[3-(4-piperidin-1-yl-but-1-ynyl)-phenyl]-propyl}-amine]	16	2	154
CN(C)CCC(Oc1ccc(C(F)(F)F)cc1)c1ccc(CCCCN2CCCCC2)cc1 (stereo not drawn) [Example 33, Dimethyl-[3-[4-(4-piperidin-1-yl-butyl)-phenyl]-3-(4-trifluoromethylphenoxy)-propyl]-amine]	3	23	5
CC(C)N1CCN(CCCCc2ccc(C(CCN(C)C)Oc3ccc(C(F)(F)F)cc3)cc2)CC1 (stereo not drawn) [Example 34, [3-[4-[4-(4-Isopropyl-piperazin-1-yl)-butyl]-phenyl]-3-(4-trifluoromethyl-phenoxy)-propyl]-dimethyl-amine]	7	12	10
CN(C)CCC(Oc1ccc(C(F)(F)F)cc1)c1ccc(CCCCN2CCOCC2)cc1 (stereo not drawn) [Example 35, Dimethyl-[3-[4-(4-morpholin-4-yl-butyl)-phenyl]-3-(4-trifluoromethyl-phenoxy)-propyl]-amine]	10	32	6
CN(C)CCC(Oc1cccc(OCCCN2CCCCC2)c1)c1ccccc1 (stereo not drawn) [Example 37, Dimethyl-{3-phenyl-3-[3-(3-piperidin-1-yl-propoxy)-phenoxy]-propyl}-amine]	65	0.7	1330
NCCC(Oc1ccccc1)c1ccc(OCCCN2CCCCC2)cc1 (stereo not drawn) [Example 68, 3-Phenoxy-3-[4-(3-piperidin-1-yl-propoxy)-phenyl]-propylamine]	7	0.8	21
CNCCC(Oc1ccccc1)c1ccc(OCCCN2CCCCC2)cc1 (stereo not drawn) [Example 72, Methyl-{3-phenoxy-3-[4-(3-piperidin-1-yl-propoxy)-phenyl]-propyl}-amine]	5	0.9	25
